Reference: patent US9034859B2, “Sulfated oxysterol and oxysterol sulfation by hydroxysterol sulfotransferase promote lipid homeostasis and liver proliferation” (Virginia Commonwealth University, priority 2011, dated 2015)

How the values were obtained:
SREBP-1c pathway = test: Western blot of cytoplasmic and nuclear liver extracts, acute treatment; type: in vivo, C57BL/6J female mice; conditions: HFD mice
Protocol: Animal studies were approved by Institutional Animal Care and Use Committee of McGuire Veterans Affairs Medical Center and were conducted in accordance with the Declaration of Helsinki, the Guide for the Care and Use of Laboratory Animals, and all applicable regulations. […] All mice were housed under identical conditions in an aseptic facility and given free access to water and food. At the end of each period, the mice were intraperitoneally injected with vehicle solution (ethanol/PBS; […] Serum triglyceride, total cholesterol, high density lipoprotein-cholesterol, glucose, alkaline phosphatase (ALK), alanine aminotransferase (ALT), and aspartate aminotransferase (AST) were measured using standard enzymatic techniques in the clinical laboratory at McGuire Veterans Affairs Medical Center. Lipoprotein profiles in sera were analyzed by HPLC as following described. Liver tissues were homogenized, and cytoplasmic and nuclear fractions were extracted with NE-PER Nuclear and Cytoplasmic Extraction Kit (Fisher Scientific, Pittsburgh, Pa.). […] Each positive band was quantified by Advanced Image Data Analyzer (Aida, Straubenhardt, Germany).

[1] = test system: lipogenic gene expression; test: Relative hepatic mRNA expression by real-time RT-PCR, long-term treatment; type: in vivo, C57BL/6J female mice; conditions: liver, HFD mice
Protocol: Animal studies were approved by Institutional Animal Care and Use Committee of McGuire Veterans Affairs Medical Center and were conducted in accordance with the Declaration of Helsinki, the Guide for the Care and Use of Laboratory Animals, and all applicable regulations. To examine the effect of 25HC3S on diet-induced lipid accumulation in sera and liver, 8-week-old female C57BL/6J mice (Charles River, Wilmington, Mass.) were randomly assigned to three groups: the first control group was fed a chow diet; the high fat diet (HFD) group was fed a HFD (Harlan Teklad, Madison, Wis.) containing 42% kcal from fat, 43% kcal from carbohydrate, 15% kcal from protein and 0.2% cholesterol; and the high cholesterol diet (HCD) group was fed a 2% cholesterol diet with 18% kcal from fat, 58% kcal from carbohydrate and 24% kcal from protein for 10 weeks, respectively. All mice were housed under identical conditions in an aseptic facility and given free access to water and food. At the end of each period, the mice were intraperitoneally injected with vehicle solution (ethanol/PBS; Vehicle), 25HC (25 mg/kg), or 25HC3S (25 mg/kg) for 2 times and fasted over night for acute treatment (n=15-17 for each group) or once every three days for 6 weeks (n=16 for each group) and fasted 5 hrs for long-term treatment; and blood samples were collected. Serum triglyceride, total cholesterol, high density lipoprotein-cholesterol, glucose, alkaline phosphatase (ALK), alanine aminotransferase (ALT), and aspartate aminotransferase (AST) were measured using standard enzymatic techniques in the clinical laboratory at McGuire Veterans Affairs Medical Center. Lipoprotein profiles in sera were analyzed by HPLC as following described.
Total RNA was isolated with SV Total RNA Isolation Kit (Promega, Madison, Wis.), which included DNase treatment. Total RNA, 2 μg, was used for the first-strand cDNA synthesis as recommended by the manufacturer (Invitrogen, Carlsbad, Calif.). Real-time RT-PCR was performed using SYBR Green as indicator on ABI 7500 Fast Real-Time PCR System (Applied Biosystems, Foster City, Calif.). All primer/probe sets for real-time PCR were TaqMan gene expression assays (Applied Biosystems, Foster City, Calif.). Amplifications of β-actin and GAPDH were used as internal controls. Relative messenger RNA (mRNA) expression was quantified with the comparative cycle threshold (Ct) method and was expressed as 2^−ΔΔCt. Suitable primers were utilized.

PCNA = PCNA labeling index in liver histology; type: in vivo, C57BL/6 mice; conditions: liver specimen of 25HC3S treated mice (5 mg/kg, 48 h)
Protocol: Metabolism. (Accepted)]. […] Antigen retrieval was performed by microwaving of the sections in citrate buffer (PH 6.0) for 10 min. Sections were incubated overnight at […] with the primary monoclonal antibody against proliferating cell nuclear antigen (PCNA) (ab29, Abcam, Cambridge, Mass.). After washing with PBS, immobilized antibodies were detected by the avidin-biotin-peroxidase complex technique (Vectastain@ ABC Kit, Vector Laboratories, Burlingame, Calif.). DAB (Vector Laboratories, Burlingame, Calif.) and haematoxylin (Sigma-Aldrich, St. Louis, Mo.) was used as the chromogen and nuclear counterstain, respectively. […] The quantitation of PCNA expression was expressed as the PCNA labeling index.

[2] = test system: primary rat hepatocytes (PRH); test: Western blot in primary rat hepatocytes (Example 4); type: cell-based; conditions: Ad-Control-infected group, T0901317 1.5 μM or 25HC 3 μM
Protocol: PRH were prepared as previously described (24). Briefly, parenchymal cells (3.5×10^6) were inoculated in 60-mm plastic Petri dishes coated with rat tail collagen. The plates contained 3 ml of Williams E culture media supplemented with thyroxine (1 μM), dexamethasone (0.1 μM), and penicillin (100 units/ml). Three hours after plating, culture medium was removed and fresh medium was added. Cells were then infected with Ad-SULT2B1b at a multiplicity (MOI) of 10 plaque forming units/cell (pfu/cell) or 100 nM of siRNA-SULT2B1b (ON-TARGET plus siRNA of rat SULT2B1b, Thermo Scientific Dharmacon, Lafayette, Colo.) as previously described (31). The Ad-Control and siRNA-Control (ON-TARGET plus negative control siRNA) were used as controls, respectively. Twenty four hours after infection, cells were treated with T0901317 (1.5 μM) or 25HC (3 μM) for another 24 hours. The cells were harvested at the timepoints as indicated in the text.
Cell lysates were prepared from frozen mouse liver tissues or PRH, and 50 μg of the total proteins were separated by 10% SDS-PAGE, transferred to polyvinylidene difluoride membrane (Millipore, Eschbom, Germany). Specific protein was probed with specific antibodies against PCNA, human SULT2B1b (Santa Cruz Biotechnology, Santa Cruz, Calif.), LXRα (Abcam, Cambridge, Mass.), ATP-binding cassette transporters 1 (ABCA1) (Abcam, Cambridge, Mass.), and SREBP1 (Santa Cruz Biotechnology, Santa Cruz, Calif.). β-Actin (Sigma-Aldrich, St. Louis, Mo.) was used as a loading control. Western analysis was performed by methods known in the art.

[3] = once every three days for 6 weeks, mean ± SD, n=5-6

CC(CCCC(C)(C)O)C1CCC2C3CC=C4CC(OS(=O)(=O)O)CCC4(C)C3CCC12C (centres unmarked) [25HC3S, 25-hydroxycholesterol-3-sulfate]
suppression of FAS protein level (SREBP-1c pathway): 40%
suppression of cytoplasmic ACC1 protein level (SREBP-1c pathway): 50%
suppression of nuclear SREBP-1c protein level (SREBP-1c pathway): 70%
decrease of ACC1 mRNA level ([1]; long-term treatment): 41%
decrease of CD36 mRNA ([1]; long-term treatment): 49%
decrease of FAS mRNA level ([1]; long-term treatment): 24%
decrease of GPAM mRNA ([1]; long-term treatment): 19%
decrease of SREBP-1c mRNA level ([1]; long-term treatment): 23%
suppression of IL1α expression ([1]; long-term treatment): 53%
suppression of IL1β expression ([1]; long-term treatment): 58%
suppression of TNFα expression ([1]; long-term treatment): 47%
ABCA1 relative hepatic mRNA [1, 3]: 0.80 ± 0.12
ABCG1 relative hepatic mRNA [1, 3]: 0.72 ± 0.19
ACC1 relative hepatic mRNA [1, 3]: 0.63 ± 0.08
CD36 relative hepatic mRNA [1, 3]: 0.47 ± 0.08
FAS relative hepatic mRNA [1, 3]: 0.73 ± 0.16
GPAM relative hepatic mRNA [1, 3]: 0.81 ± 0.10
IL1α relative hepatic mRNA [1, 3]: 0.54 ± 0.14
IL1β relative hepatic mRNA [1, 3]: 0.58 ± 0.27
IκBα relative hepatic mRNA [1, 3]: 1.48 ± 0.38
LDLR relative hepatic mRNA [1, 3]: 0.79 ± 0.13
LXRα relative hepatic mRNA [1, 3]: 0.95 ± 0.24
MTTP relative hepatic mRNA [1, 3]: 0.78 ± 0.09
NFκB relative hepatic mRNA [1, 3]: 0.86 ± 0.22
PLTP relative hepatic mRNA [1, 3]: 0.60 ± 0.11
SRB1 relative hepatic mRNA [1, 3]: 0.87 ± 0.20
SREBP-1c relative hepatic mRNA [1, 3]: 0.76 ± 0.08
TNFα relative hepatic mRNA [1, 3]: 0.60 ± 0.34
PCNA labeling index (PCNA): 12%

C[C@H](CCCC(C)(C)O)[C@H]1CC[C@H]2[C@@H]3CC=C4C[C@@H](O)CC[C@]4(C)[C@H]3CC[C@]12C [25HC, 25-hydroxycholesterol]
nuclear SREBP-1, cytoplasmic ACC1 and FAS protein levels (SREBP-1c pathway): increased
LXR response gene expressions [2]: significantly increased
PCNA expression [2]: decreased
